Read-outs that look alike come from different tables or passages of the source.
Target: T1, his-galectin-3 (Homo sapiens, UniProt P17931)
T1 construct: purchased Abcam
Experiment: TR-FRET assay (in vitro galectin-3 binding inhibitory activity test)
Settings: compound at 20 μM, 60 nM his-galectin-3, 15 nM biotin-ASF
Procedure, shortened: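 Compound is premixed with his-galectin-3 (60 nM final), then biotin-ASF (15 nM), Tb anti-His antibody (2 nM) and streptavidin-d2 (20 nM) are added. After at least 3.5 hours at RT in HEPES/NaCl buffer with Tween 20 and BSA, TR-FRET is read at 615/665 nm. DMSO serves as the uninhibited control, ASF omission as background.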

[1] = Table 1, read-out: % Inhibitory activity (at 20 μM)
[2] = read-out: % Inhibitory activity (at 20 μM), Table 1

T1 sequence (P17931 whole entry): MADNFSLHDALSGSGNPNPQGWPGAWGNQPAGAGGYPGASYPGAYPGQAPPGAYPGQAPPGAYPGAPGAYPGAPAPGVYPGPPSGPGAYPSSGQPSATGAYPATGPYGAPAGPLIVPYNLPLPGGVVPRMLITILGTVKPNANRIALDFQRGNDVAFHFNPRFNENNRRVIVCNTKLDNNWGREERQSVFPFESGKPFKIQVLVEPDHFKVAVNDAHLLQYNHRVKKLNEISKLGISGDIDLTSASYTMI

Compound	inhibition at 20 µM [1] [%]	further results
CN(Cc1cccc(Cl)c1)[C@@H]1CCO[C@]12O[C@H](CO)[C@H](O)[C@H](n1cc(-c3cc(F)c(F)c(F)c3)nn1)[C@H]2O [Compound A103, (4R,5S,7R,8R,9S,10R)-4-((3-chlorobenzyl)(methyl)amino)-7-(hydroxymethyl)-9-(4-(3,4,5-trifluorophenyl)-1H-1,2,3-triazol-1-yl)-1,6-dioxaspiro[4.5]decane-8,10-diol]	< 25	–
OC[C@H]1O[C@]2(OCC[C@H]2NCC2CCCC2)[C@H](O)[C@@H](n2cc(-c3cc(F)c(F)c(F)c3)nn2)[C@H]1O [Compound A104, (4R,5S,7R,8R,9S,10R)-4-((cyclopentylmethyl)amino)-7-(hydroxymethyl)-9-(4-(3,4,5-trifluorophenyl)-1H-1,2,3-triazol-1-yl)-1,6-dioxaspiro[4.5]decane-8,10-diol]	< 25	–
OC[C@H]1O[C@]2(OCC[C@H]2NCc2ccccc2)[C@H](O)[C@@H](n2cc(-c3cc(F)c(F)c(F)c3)nn2)[C@H]1O [Compound A105, (4R,5S,7R,8R,9S,10R)-4-(benzylamino)-7-(hydroxymethyl)-9-(4-(3,4,5-trifluorophenyl)-1H-1,2,3-triazol-1-yl)-1,6-dioxaspiro[4.5]decane-8,10-diol]	–	inhibition at 20 µM [2]: < 25%
O=C(Cc1cccc(Cl)c1)N[C@@H]1CCO[C@]12O[C@H](CO)[C@H](O)[C@H](n1cc(-c3cc(F)c(F)c(F)c3)nn1)[C@H]2O [Compound A106, 2-(3-chlorophenyl)-N-((4R,5S,7R,8R,9S,10R)-8,10-dihydroxy-7-(hydroxymethyl)-9-(4-(3,4,5-trifluorophenyl)-1H-1,2,3-triazol-1-yl)-1,6-dioxaspiro[4.5]decan-4-yl)acetamide]	–	inhibition at 20 µM [2]: 50 to 75%
O=C(N[C@@H]1CCO[C@]12O[C@H](CO)[C@H](O)[C@H](n1cc(-c3cc(F)c(F)c(F)c3)nn1)[C@H]2O)C1CCCC1 [Compound A107, N-((4R,5S,7R,8R,9S,10R)-8,10-dihydroxy-7-(hydroxymethyl)-9-(4-(3,4,5-trifluorophenyl)-1H-1,2,3-triazol-1-yl)-1,6-dioxaspiro[4.5]decan-4-yl)cyclopentancarboxamide]	25 to 50	–
O=C(CC1CCCC1)N[C@@H]1CCO[C@]12O[C@H](CO)[C@H](O)[C@H](n1cc(-c3cc(F)c(F)c(F)c3)nn1)[C@H]2O [Compound A108, 2-cyclopentyl-N-((4R,5S,7R,8R,9S,10R)-8,10-dihydroxy-7-(hydroxymethyl)-9-(4-(3,4,5-trifluorophenyl)-1H-1,2,3-triazol-1-yl)-1,6-dioxaspiro[4.5]decan-4-yl)acetamide]	25 to 50	–
OC[C@H]1O[C@@]2(CCCCS2)[C@H](O)[C@@H](n2cc(-c3cc(F)c(F)c(F)c3)nn2)[C@H]1O [Compound A109, (2R,3R,4S,5R,6R)-2-(hydroxymethyl)-4-(4-(3,4,5-trifluorophenyl)-1H-1,2,3-triazol-1-yl)-1-oxa-7-thiaspiro[5.5]undecane-3,5-diol]	< 25	–
OC[C@H]1O[C@@]2(CCCNC2)[C@H](O)[C@@H](n2cc(-c3cc(F)c(F)c(F)c3)nn2)[C@H]1O [Compound A110, (2R,3R,4S,5R,6R)-2-(hydroxymethyl)-4-(4-(3,4,5-trifluorophenyl)-1H-1,2,3-triazol-1-yl)-1-oxa-8-azaspiro[5.5]undecane-3,5-diol]	< 25	–
O=C(Cc1cccc2ccccc12)N[C@@H]1CCO[C@]12O[C@H](CO)[C@H](O)[C@H](n1cc(-c3cc(F)c(F)c(F)c3)nn1)[C@H]2O [Compound A111, N-((4R,5S,7R,8R,9S,10R)-8,10-dihydroxy-7-(hydroxymethyl)-9-(4-(3,4,5-trifluorophenyl)-1H-1,2,3-triazol-1-yl)-1,6-dioxaspiro[4.5]decan-4-yl)-2-(naphthalen-1-yl)acetamide]	25 to 50	–
O=C(Cc1ccccc1Cl)N[C@@H]1CCO[C@]12O[C@H](CO)[C@H](O)[C@H](n1cc(-c3cc(F)c(F)c(F)c3)nn1)[C@H]2O [Compound A112, 2-(2-chlorophenyl)-N-((4R,5S,7R,8R,9S,10R)-8,10-dihydroxy-7-(hydroxymethyl)-9-(4-(3,4,5-trifluorophenyl)-1H-1,2,3-triazol-1-yl)-1,6-dioxaspiro[4.5]decan-4-yl)acetamide]	50 to 75	inhibition at 20 µM (Table 3, found values, read-out: % Inhibitory activity (at 20 μM)): 53.8%
O=C(Cc1cccc(F)c1)N[C@@H]1CCO[C@]12O[C@H](CO)[C@H](O)[C@H](n1cc(-c3cc(F)c(F)c(F)c3)nn1)[C@H]2O [Compound A113, N-((4R,5S,7R,8R,9S,10R)-8,10-dihydroxy-7-(hydroxymethyl)-9-(4-(3,4,5-trifluorophenyl)-1H-1,2,3-triazol-1-yl)-1,6-dioxaspiro[4.5]decan-4-yl)-2-(3-fluorophenyl)acetamide]	50 to 75	–
O=C(N[C@@H]1CCO[C@]12O[C@H](CO)[C@H](O)[C@H](n1cc(-c3cc(F)c(F)c(F)c3)nn1)[C@H]2O)C1(c2ccccc2)CC1 [Compound A114, N-((4R,5S,7R,8R,9S,10R)-8,10-dihydroxy-7-(hydroxymethyl)-9-(4-(3,4,5-trifluorophenyl)-1H-1,2,3-triazol-1-yl)-1,6-dioxaspiro[4.5]decan-4-yl)-1-phenylcyclopropanecarboxamide]	< 25	–
O=C(Cc1ccc2ccccc2c1)N[C@@H]1CCO[C@]12O[C@H](CO)[C@H](O)[C@H](n1cc(-c3cc(F)c(F)c(F)c3)nn1)[C@H]2O [Compound A115, N-((4R,5S,7R,8R,9S,10R)-8,10-dihydroxy-7-(hydroxymethyl)-9-(4-(3,4,5-trifluorophenyl)-1H-1,2,3-triazol-1-yl)-1,6-dioxaspiro[4.5]decan-4-yl)-2-(naphthalen-2-yl)acetamide]	50 to 75	–
COc1cccc(CC(=O)N[C@@H]2CCO[C@]23O[C@H](CO)[C@H](O)[C@H](n2cc(-c4cc(F)c(F)c(F)c4)nn2)[C@H]3O)c1 [Compound A116, N-((4R,5S,7R,8R,9S,10R)-8,10-dihydroxy-7-(hydroxymethyl)-9-(4-(3,4,5-trifluorophenyl)-1H-1,2,3-triazol-1-yl)-1,6-dioxaspiro[4.5]decan-4-yl)-2-(3-methoxyphenyl)acetamide]	50 to 75	–
O=C(Cc1ccc(Cl)cc1)N[C@@H]1CCO[C@]12O[C@H](CO)[C@H](O)[C@H](n1cc(-c3cc(F)c(F)c(F)c3)nn1)[C@H]2O [Compound A117, 2-(4-chlorophenyl)-N-((4R,5S,7R,8R,9S,10R)-8,10-dihydroxy-7-(hydroxymethyl)-9-(4-(3,4,5-trifluorophenyl)-1H-1,2,3-triazol-1-yl)-1,6-dioxaspiro[4.5]decan-4-yl)acetamide]	50 to 75	–
COc1cccc(C(=O)N[C@@H]2CCO[C@]23O[C@H](CO)[C@H](O)[C@H](n2cc(-c4cc(F)c(F)c(F)c4)nn2)[C@H]3O)c1 [Compound A118, N-((4R,5S,7R,8R,9S,10R)-8,10-dihydroxy-7-(hydroxymethyl)-9-(4-(3,4,5-trifluorophenyl)-1H-1,2,3-triazol-1-yl)-1,6-dioxaspiro[4.5]decan-4-yl)-3-methoxybenzamide]	> 75	–
O=C(N[C@@H]1CCO[C@]12O[C@H](CO)[C@H](O)[C@H](n1cc(-c3cc(F)c(F)c(F)c3)nn1)[C@H]2O)c1cccc(Cl)c1 [Compound A119, 3-chloro-N-((4R,5S,7R,8R,9S,10R)-8,10-dihydroxy-7-(hydroxymethyl)-9-(4-(3,4,5-trifluorophenyl)-1H-1,2,3-triazol-1-yl)-1,6-dioxaspiro[4.5]decan-4-yl)benzamide]	–	inhibition at 20 µM [2]: > 75%; inhibition at 20 µM (read-out: % Inhibitory activity (at 20 μM), Table 3, found values): 93.7%
O=C(N[C@@H]1CCO[C@]12O[C@H](CO)[C@H](O)[C@H](n1cc(-c3cc(F)c(F)c(F)c3)nn1)[C@H]2O)c1ccc(Oc2ccccc2)cc1 [Compound A120, N-((4R,5S,7R,8R,9S,10R)-8,10-dihydroxy-7-(hydroxymethyl)-9-(4-(3,4,5-trifluorophenyl)-1H-1,2,3-triazol-1-yl)-1,6-dioxaspiro[4.5]decan-4-yl)-4-phenoxybenzamide]	25 to 50	–
O=C(N[C@@H]1CCO[C@]12O[C@H](CO)[C@H](O)[C@H](n1cc(-c3cc(F)c(F)c(F)c3)nn1)[C@H]2O)c1ccccc1-c1ccccc1 [Compound A121, N-((4R,5S,7R,8R,9S,10R)-8,10-dihydroxy-7-(hydroxymethyl)-9-(4-(3,4,5-trifluorophenyl)-1H-1,2,3-triazol-1-yl)-1,6-dioxaspiro[4.5]decan-4-yl)-[1.1′ biphenyl]-2-carboxamide]	25 to 50	–
O=C(N[C@@H]1CCO[C@]12O[C@H](CO)[C@H](O)[C@H](n1cc(-c3cc(F)c(F)c(F)c3)nn1)[C@H]2O)c1cccc(OC(F)(F)F)c1 [Compound A122, N-((4R,5S,7R,8R,9S,10R)-8,10-dihydroxy-7-(hydroxymethyl)-9-(4-(3,4,5-trifluorophenyl)-1H-1,2,3-triazol-1-yl)-1,6-dioxaspiro[4.5]decan-4-yl)-3-(trifluoromethoxy)benzamide]	50 to 75	–
O=C(N[C@@H]1CCO[C@]12O[C@H](CO)[C@H](O)[C@H](n1cc(-c3cc(F)c(F)c(F)c3)nn1)[C@H]2O)c1cc2ccccc2o1 [Compound A123, N-((4R,5S,7R,8R,9S,10R)-8,10-dihydroxy-7-(hydroxymethyl)-9-(4-(3,4,5-trifluorophenyl)-1H-1,2,3-triazol-1-yl)-1,6-dioxaspiro[4.5]decan-4-yl)benzofuran-2-carboxamide]	50 to 75	–
